Among the data in patent publication US8546579B2, “Bicycloheteroaryl compounds as P2X7 modulators and uses thereof” (Evotec (US) Inc., priority 2006, dated 2013) are inhibition values, retold here.

The first test deals with T1, P2X7 receptor (Homo sapiens, UniProt Q99572).
T1 construct: host or cells: THP-1 cells differentiated with LPS and IFN-γ
T1 sequence (Q99572 1-595): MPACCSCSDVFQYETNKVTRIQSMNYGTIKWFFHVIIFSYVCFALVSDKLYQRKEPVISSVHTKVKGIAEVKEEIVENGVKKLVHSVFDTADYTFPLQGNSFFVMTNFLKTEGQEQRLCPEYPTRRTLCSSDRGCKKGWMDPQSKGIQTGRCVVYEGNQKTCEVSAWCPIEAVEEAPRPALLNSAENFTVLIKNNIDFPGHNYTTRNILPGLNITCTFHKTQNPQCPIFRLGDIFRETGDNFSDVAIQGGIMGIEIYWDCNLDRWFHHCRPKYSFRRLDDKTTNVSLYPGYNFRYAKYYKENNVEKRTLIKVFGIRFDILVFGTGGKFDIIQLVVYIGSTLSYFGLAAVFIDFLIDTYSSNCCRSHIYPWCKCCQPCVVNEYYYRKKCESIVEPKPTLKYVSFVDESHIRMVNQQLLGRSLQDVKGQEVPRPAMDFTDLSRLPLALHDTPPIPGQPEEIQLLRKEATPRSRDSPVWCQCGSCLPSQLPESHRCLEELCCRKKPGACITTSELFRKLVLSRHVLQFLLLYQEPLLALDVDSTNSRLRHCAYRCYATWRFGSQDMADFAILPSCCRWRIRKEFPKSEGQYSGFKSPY
In words: IL-1β release assay in differentiated THP-1 cells stimulated with BzATP (Example 9). It is filed as cell-based. Conditions: 0.1 μM compound; differentiated THP-1 cells, BzATP 250 uM; symbols * to ****; read-out: IL-1β % Inhib. (asterisk symbols: at 0.1 μM). An outline of the steps: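 IC50 derived by four-parameter logistic fit of percent inhibition of IL-1β release, measured by ELISA after 45 min stimulation with 250 uM BzATP. Cells: THP-1 differentiated 16 h with 100 ng/mL LPS plus IFN-γ, LPS-primed 2 h, compound added 30 min beforehand.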
`COc1cc(OC)cc(C(=O)Nc2cccc3c(=O)n(CC(C)(C)C)ccc23)c1` [Compound 1245]: the inhibition at 0.1 µM lay in the range of 0 to 25%. As for `Cc1cccc(C(=O)Nc2cccc3c(=O)n(CC(C)(C)C)ccc23)c1` [Compound 1246], the inhibition at 0.1 µM is 0 to 25%. As for `CC(C(=O)Nc1cccc2c(=O)n(CC(C)(C)C)ccc12)c1ccccc1` (centres unmarked) [Compound 1247], the inhibition at 0.1 µM fell in the range of 0 to 25%.

Staying with this test, now noted: 0.3 μM compound; differentiated THP-1 cells, BzATP 250 uM; symbols + to ++++; read-out: IL-1β % Inhib. @ 0.3 μM.
For the compound `O=C(CC1CC2CC[C@H]1C2)Nc1cccc2c(=O)n(CCN3CCOCC3)ccc12` (some centres unmarked) [Compound 1222], the inhibition at 0.3 µM was 0 to 25%. As to `O=C(Nc1cccc2c(=O)n(CCN3CCOCC3)ccc12)[C@@]12C[C@@H]3C[C@@H](C[C@@H]1C3)C2` [Compound 1223], the inhibition at 0.3 µM fell in the range of 0 to 25%.

As for `O=C(Nc1cccc2c(=O)n(CCN3CCOCC3)ccc12)c1cccc2c1OCCO2` [Compound 1224], the inhibition at 0.3 µM is 0 to 25%.

As for `O=C(Nc1cccc2c(=O)n(CCN3CCOCC3)ccc12)c1ccc2c(c1)OCCCO2` [Compound 1225], the inhibition at 0.3 µM lay within 0 to 25%.

Turning to `O=C(Cc1csc2ccccc12)Nc1cccc2c(=O)n(CCN3CCOCC3)ccc12` [Compound 1226], the inhibition at 0.3 µM lay within 0 to 25%. For the compound `Cc1c(Cl)cccc1C(=O)Nc1cccc2c(=O)n(CCN3CCOCC3)ccc12` [Compound 1227], the inhibition at 0.3 µM lay in the range of 0 to 25%. Take `Cc1cc(C)cc(CC(=O)Nc2cccc3c(=O)n(CCN4CCOCC4)ccc23)c1` [Compound 1228]: the inhibition at 0.3 µM was in the range of 0 to 25%. Same read-out and setting: the figure for `COc1ccc(CC(=O)Nc2cccc3c(=O)n(CCN4CCOCC4)ccc23)c(OC)c1` [Compound 1230] is 0 to 25%. Consider `Cc1cc(C(=O)Nc2cccc3c(=O)n(CCN4CCOCC4)ccc23)ccc1F` [Compound 1231], for which the inhibition at 0.3 µM was in the range of 0 to 25%. Regarding `O=C(CCc1ccc(Cl)cc1)Nc1cccc2c(=O)n(CCN3CCOCC3)ccc12` [Compound 1232], the inhibition at 0.3 µM lay in the range of 0 to 25%. Still for that read-out and setting: the figure for `CCOc1ccccc1CC(=O)Nc1cccc2c(=O)n(CCN3CCOCC3)ccc12` [Compound 1233] is 0 to 25%; for `COc1ccc(CC(=O)Nc2cccc3c(=O)n(CCN4CCOCC4)ccc23)cc1C` [Compound 1234] it is 0 to 25%. In the case of `Cc1ccc(Cl)c(C(=O)Nc2cccc3c(=O)n(CCN4CCOCC4)ccc23)c1` [Compound 1235], the inhibition at 0.3 µM lay within 0 to 25%. Same read-out and setting: the figure for `Cc1ccc(Cl)cc1C(=O)Nc1cccc2c(=O)n(CCN3CCOCC3)ccc12` [Compound 1236] is 0 to 25%; for `Cc1cccc(CCC(=O)Nc2cccc3c(=O)n(CCN4CCOCC4)ccc23)c1` [Compound 1237] it is 26 to 50%; for `O=C(Nc1cccc2c(=O)n(CCN3CCOCC3)ccc12)c1cc2cc(Cl)ccc2o1` [Compound 1238] it is 26 to 50%. For `Cc1cccc(C(=O)Nc2cccc3c(=O)n(CCN4CCOCC4)ccc23)c1Cl` [Compound 1239], the inhibition at 0.3 µM lay in the range of 0 to 25%. Turning to `COc1ccc(C(=O)Nc2cccc3c(=O)n(CCN4CCOCC4)ccc23)cc1C` [Compound 1240], the inhibition at 0.3 µM lay in the range of 26 to 50%.

With `Cc1ccc(CCC(=O)Nc2cccc3c(=O)n(CCN4CCOCC4)ccc23)c(C)c1` [Compound 1241], the inhibition at 0.3 µM is 0 to 25%. Turning to `O=C(CCc1cccc(Cl)c1)Nc1cccc2c(=O)n(CCN3CCOCC3)ccc12` [Compound 1242], the inhibition at 0.3 µM fell in the range of 26 to 50%.

On to `CC(C)Cc1ccc(C(=O)Nc2cccc3c(=O)n(CCN4CCOCC4)ccc23)cc1` [Compound 1243], for which the inhibition at 0.3 µM lay in the range of 0 to 25%. In the case of `CC(C)(C)Cn1ccc2c(NC(=O)c3ccccc3Cl)cccc2c1=O` [Compound 1244], the inhibition at 0.3 µM fell in the range of 0 to 25%. With `COc1ccccc1CCC(=O)Nc1cccc2c(=O)n(CC(C)(C)C)ccc12` [Compound 1248], the inhibition at 0.3 µM is 0 to 25%.

With `CC(C)(C)Cn1ccc2c(NC(=O)c3cccc4ccccc34)cccc2c1=O` [Compound 1249], the inhibition at 0.3 µM fell in the range of 0 to 25%. In the case of `CC(C)(C)Cn1ccc2c(NC(=O)Cc3cccc4ccccc34)cccc2c1=O` [Compound 1250], the inhibition at 0.3 µM is 0 to 25%.

For `CC(C)(C)Cn1ccc2c(NC(=O)c3ccc4ccccc4c3)cccc2c1=O` [Compound 1251], the inhibition at 0.3 µM lay within 0 to 25%. Take `CC(C)(C)Cn1ccc2c(NC(=O)Cc3ccccc3F)cccc2c1=O` [Compound 1252]: the inhibition at 0.3 µM was in the range of 0 to 25%. On to `CC(C)(C)Cn1ccc2c(NC(=O)Cc3ccccc3Cl)cccc2c1=O` [Compound 1253], for which the inhibition at 0.3 µM fell in the range of 0 to 25%. On the same count and under the same terms, the figure for `COc1ccccc1CC(=O)Nc1cccc2c(=O)n(CC(C)(C)C)ccc12` [Compound 1254] is 0 to 25%; for `Cc1ccccc1CC(=O)Nc1cccc2c(=O)n(CC(C)(C)C)ccc12` [Compound 1256] it is 0 to 25%; for `COc1cccc(CC(=O)Nc2cccc3c(=O)n(CC(C)(C)C)ccc23)c1` [Compound 1257] it is 0 to 25%. The same measure, in the same setting: the figure for `COc1ccc(CC(=O)Nc2cccc3c(=O)n(CC(C)(C)C)ccc23)cc1OC` [Compound 1258] is 0 to 25%; for `Cc1cccc(CC(=O)Nc2cccc3c(=O)n(CC(C)(C)C)ccc23)c1` [Compound 1259] it is 0 to 25%; for `COc1ccc(CC(=O)Nc2cccc3c(=O)n(CC(C)(C)C)ccc23)cc1` [Compound 1260] it is 0 to 25%.

As to `CCOc1ccc(CC(=O)Nc2cccc3c(=O)n(CC(C)(C)C)ccc23)cc1` [Compound 1261], the inhibition at 0.3 µM lay within 0 to 25%. The same measure, in the same setting: under `Cc1ccc(CC(=O)Nc2cccc3c(=O)n(CC(C)(C)C)ccc23)cc1` [Compound 1262] stands 0 to 25%. For `CC(C)(C)Cn1ccc2c(NC(=O)CCCc3ccccc3)cccc2c1=O` [Compound 1263], the inhibition at 0.3 µM is 0 to 25%. As to `CC(C)(C)Cn1ccc2c(NC(=O)c3cc4ccccc4o3)cccc2c1=O` [Compound 1264], the inhibition at 0.3 µM fell in the range of 0 to 25%. On to `CC(C)(C)Cn1ccc2c(NC(=O)Cc3ccc4c(c3)OCO4)cccc2c1=O` [Compound 1265], for which the inhibition at 0.3 µM fell in the range of 26 to 50%. Consider `COc1cc(CC(=O)Nc2cccc3c(=O)n(CC(C)(C)C)ccc23)cc(OC)c1` [Compound 1266], for which the inhibition at 0.3 µM is 0 to 25%. As for `COc1c(C)cc(C(=O)Nc2cccc3c(=O)n(CC(C)(C)C)ccc23)cc1C` [Compound 1267], the inhibition at 0.3 µM was 0 to 25%. With `Cc1ccc(C(=O)Nc2cccc3c(=O)n(CC(C)(C)C)ccc23)cc1Cl` [Compound 1268], the inhibition at 0.3 µM lay within 0 to 25%.

`Cc1cc(Cl)ccc1C(=O)Nc1cccc2c(=O)n(CC(C)(C)C)ccc12` [Compound 1269]: the inhibition at 0.3 µM was 0 to 25%. The same measure, in the same setting: under `CC(C)(C)Cn1ccc2c(NC(=O)CC3CC4CC[C@H]3C4)cccc2c1=O` (some centres unmarked) [Compound 1270] stands 0 to 25%; under `CC(C)(C)Cn1ccc2c(NC(=O)[C@@]34C[C@@H]5C[C@@H](C[C@@H]3C5)C4)cccc2c1=O` [Compound 1271], 0 to 25%. Same read-out and setting: the figure for `CC(C)(C)Cn1ccc2c(NC(=O)c3cccc4c3OCCO4)cccc2c1=O` [Compound 1272] is 0 to 25%. Regarding `CC(C)(C)Cn1ccc2c(NC(=O)c3ccc4c(c3)OCCCO4)cccc2c1=O` [Compound 1273], the inhibition at 0.3 µM lay in the range of 0 to 25%.

Turning to `CC(C)(C)Cn1ccc2c(NC(=O)Cc3csc4ccccc34)cccc2c1=O` [Compound 1274], the inhibition at 0.3 µM lay in the range of 0 to 25%. Take `Cc1c(Cl)cccc1C(=O)Nc1cccc2c(=O)n(CC(C)(C)C)ccc12` [Compound 1275]: the inhibition at 0.3 µM is 0 to 25%.

As for `Cc1cc(C)cc(CC(=O)Nc2cccc3c(=O)n(CC(C)(C)C)ccc23)c1` [Compound 1276], the inhibition at 0.3 µM fell in the range of 0 to 25%. On the same count and under the same terms, the figure for `CC(C)(C)Cn1ccc2c(NC(=O)C3C[C@@H]4CC[C@H]3C4)cccc2c1=O` (some centres unmarked) [Compound 1277] is at least 76%; for `COc1ccc(CC(=O)Nc2cccc3c(=O)n(CC(C)(C)C)ccc23)c(OC)c1` [Compound 1278] it is 0 to 25%; for `Cc1cc(C(=O)Nc2cccc3c(=O)n(CC(C)(C)C)ccc23)ccc1F` [Compound 1279] it is 0 to 25%.

Turning to `CCOc1ccccc1CC(=O)Nc1cccc2c(=O)n(CC(C)(C)C)ccc12` [Compound 1280], the inhibition at 0.3 µM lay within 0 to 25%. `COc1ccc(CC(=O)Nc2cccc3c(=O)n(CC(C)(C)C)ccc23)cc1C` [Compound 1281]: the inhibition at 0.3 µM is 26 to 50%. On to `Cc1ccc(Cl)c(C(=O)Nc2cccc3c(=O)n(CC(C)(C)C)ccc23)c1` [Compound 1282], for which the inhibition at 0.3 µM lay within 0 to 25%. In the case of `Cc1ccc(Cl)cc1C(=O)Nc1cccc2c(=O)n(CC(C)(C)C)ccc12` [Compound 1283], the inhibition at 0.3 µM is 26 to 50%. Regarding `Cc1cccc(CCC(=O)Nc2cccc3c(=O)n(CC(C)(C)C)ccc23)c1` [Compound 1284], the inhibition at 0.3 µM is 0 to 25%. As to `Cc1ccc(CCC(=O)Nc2cccc3c(=O)n(CC(C)(C)C)ccc23)c(C)c1` [Compound 1286], the inhibition at 0.3 µM was in the range of 0 to 25%.
